Data from US12421211B2, “Heterocyclic compounds” (Hoffmann-La Roche Inc., priority 2021, dated 2025).
Counter-ions that a name gives are not always drawn.

Each molecule was assayed on Acinetobacter baumannii ATCC17961 (assay: Antimicrobial susceptibility testing: 90% growth inhibitory concentration (IC90) determination). Details: Acinetobacter baumannii, ATCC17961, 16 h, 90% growth inhibitory concentration, Acinetobacter baumannii ATCC17961, Iso-Sensitest broth, OD 600 nm over 16 h; read-out: ATCC 17961 IC90.
Assay type: cell-based
Procedure: Assay Procedures Antimicrobial Susceptibility Testing: 90% Growth Inhibitory Concentration (IC90) Determination
The in vitro antimicrobial activity of the compounds was determined according to the following procedure:
The assay used a 10-points Iso-Sensitest broth medium to measure quantitatively the in vitro activity of the compounds against Acinetobacter baumannii ATCC17961.
Stock compounds in DMSO were serially twofold diluted (e.g. range from 50 to 0.097 μM final concentration) in 384 wells microtiter plates and inoculated with 49 μl the bacterial suspension in Iso-Sensitest medium to have a final cell concentration of ˜5×10^(5) CFU/ml in a final volume/well of 50 ul/well. Microtiter plates were incubated at 35±2° C.
Bacterial cell growth was determined with the measurement of optical density at λ=600 nm each 20 minutes over a time course of 16h. Growth inhibition was calculated during the logarithmic growth of the bacterial cells with determination of the concentration inhibiting 50% (IC50) and 90% (IC90) of the growth.
Table 1 provides the 90% growth inhibitory concentrations (IC90) in micromoles per liter of the compounds of present invention obtained against the strain Acinetobacter baumannii ATCC17961.

`COCCn1ncc(-c2ccc(-c3cnc(C(=O)Nc4ccc(C(=O)N5CCN(C(=O)C6CC[N+](C)(C)CC6)CC5)c(Cl)c4)n3C)c(OC)c2)c1C` [Example F18, N-[3-chloro-4-[4-(1,1-dimethylpiperidin-1-ium-4-carbonyl)piperazine-1-carbonyl]phenyl]-5-[2-methoxy-4-[1-(2-methoxyethyl)-5-methyl-pyrazol-4-yl]phenyl]-1-methyl-imidazole-2-carboxamide; formate] and `COCCn1nc(C)c(-c2ccc(-c3cnc(C(=O)Nc4ccc(C(=O)N5CCN(C(=O)C6CC[N+](C)(C)CC6)CC5)c(Cl)c4)n3C)c(F)n2)c1C` [Example F67, N-[3-chloro-4-[4-(1,1-dimethylpiperidin-1-ium-4-carbonyl)piperazine-1-carbonyl]phenyl]-5-[2-fluoro-6-[1-(2-methoxyethyl)-3,5-dimethyl-pyrazol-4-yl]-3-pyridyl]-1-methyl-imidazole-2-carboxamide; formate] are the same in IC90: 1100 nM for the first, 1100 nM for the second.

`Cc1nn(Cc2ccccn2)cc1-c1ccc(-c2cnc(C(=O)Nc3ccc(C(=O)N4CCN(C(=O)C5CC[N+](C)(C)CC5)CC4)c(Cl)c3)n2C)c(F)c1F` [Example F41, N-[3-chloro-4-[4-(1,1-dimethylpiperidin-1-ium-4-carbonyl)piperazine-1-carbonyl]phenyl]-5-[2,3-difluoro-4-[3-methyl-1-(2-pyridylmethyl)pyrazol-4-yl]phenyl]-1-methyl-imidazole-2-carboxamide; formate] and `Cc1nn(CC(=O)Nc2nccs2)cc1-c1ccc(-c2cnc(C(=O)Nc3ccc(C(=O)N4CCN(C(=O)C5CC[N+](C)(C)CC5)CC4)c(Cl)c3)n2C)c(F)c1F` [Example G10, N-[3-chloro-4-[4-(1,1-dimethylpiperidin-1-ium-4-carbonyl)piperazine-1-carbonyl]phenyl]-5-[2,3-difluoro-4-[3-methyl-1-[2-oxo-2-(thiazol-2-ylamino)ethyl]pyrazol-4-yl]phenyl]-1-methyl-imidazole-2-carboxamide; formate] are within 1.5-fold of each other in IC90: 150 nM for the first, 120 nM for the second.

Going from `COc1ccccc1-c1[nH]ncc1-c1ccc(-c2cnc(C(=O)Nc3ccc(C(=O)N4CCN(C(=O)C5CC[N+](C)(C)CC5)CC4)c(Cl)c3)n2C)c(F)c1F` [Example I4, N-[3-chloro-4-[4-(1,1-dimethylpiperidin-1-ium-4-carbonyl)piperazine-1-carbonyl]phenyl]-5-[2,3-difluoro-4-[5-(2-methoxyphenyl)-1H-pyrazol-4-yl]phenyl]-1-methyl-imidazole-2-carboxamide; formate] to `Cc1n[nH]cc1-c1ccc(-c2cnc(C(=O)Nc3ccc(C(=O)N4CCN(C(=O)C5CCNCC5)CC4)c(Cl)c3)n2C)c(F)c1F` [Example E19, N-[3-chloro-4-[4-(piperidine-4-carbonyl)piperazine-1-carbonyl]phenyl]-5-[2,3-difluoro-4-(3-methyl-1H-pyrazol-4-yl)phenyl]-1-methyl-imidazole-2-carboxamide], the IC90 falls from 1500 nM to 130 nM (12-fold).

`Cc1nn(CCNC(=O)NC(C)(C)C)cc1-c1ccc(-c2cnc(C(=O)Nc3ccc(C(=O)N4CCN(C(=O)C5CC[N+](C)(C)CC5)CC4)c(Cl)c3)n2C)c(F)c1F` [Example H5, 5-[4-[1-[2-(tert-butylcarbamoylamino)ethyl]-3-methyl-pyrazol-4-yl]-2,3-difluoro-phenyl]-N-[3-chloro-4-[4-(1,1-dimethylpiperidin-1-ium-4-carbonyl)piperazine-1-carbonyl]phenyl]-1-methyl-imidazole-2-carboxamide; formate] and `Cc1nn(CCCO)cc1-c1ccc(-c2cnc(C(=O)Nc3ccc(C(=O)N4CCN(C(=O)[C@@H]5C[C@@H](O)C[N+]5(C)C)CC4)c(Cl)c3)n2C)c(F)c1F` [Example F16, N-[3-chloro-4-[4-[(2S,4R)-4-hydroxy-1,1-dimethyl-pyrrolidin-1-ium-2-carbonyl]piperazine-1-carbonyl]phenyl]-5-[2,3-difluoro-4-[1-(3-hydroxypropyl)-3-methyl-pyrazol-4-yl]phenyl]-1-methyl-imidazole-2-carboxamide; formate] are within 1.5-fold of each other in IC90: 170 nM for the first, 240 nM for the second.

First: COCCn1nc(C)c(-c2ccc(-c3cnc(C(=O)Nc4ccc(C(=O)NC5[C@H]6CN(C(=O)N[C@@H]7C[N+](C)(C)C[C@H]7O)C[C@@H]56)c(Cl)c4)n3C)c(F)c2F)c1C (mixture of isomers) [Example F60, rac-(1S,5R)-6-[[2-chloro-4-[[5-[2,3-difluoro-4-[1-(2-methoxyethyl)-3,5-dimethyl-pyrazol-4-yl]phenyl]-1-methyl-imidazole-2-carbonyl]amino]benzoyl]amino]-N-[(3R,4R)-4-hydroxy-1,1-dimethyl-pyrrolidin-1-ium-3-yl]-3-azabicyclo[3.1.0]hexane-3-carboxamide; formate]
Second: Cc1nn(CC2CC2(F)F)c(C)c1-c1ccc(-c2cnc(C(=O)Nc3ccc(C(=O)N4CCN(C(=O)C5C[C@@H](O)C[N+]5(C)C)CC4)c(Cl)c3)n2C)c(F)c1F (stereo partly drawn) [Example K3, N-[3-chloro-4-[4-[(4R)-4-hydroxy-1,1-dimethyl-pyrrolidin-1-ium-2-carbonyl]piperazine-1-carbonyl]phenyl]-5-[4-[1-2,2-difluorocyclopropyl)methyl]-3,5-dimethyl-pyrazol-4-yl]-2,3-difluoro-phenyl]-1-methyl-imidazole-2-carboxamide; formate]
The IC90 of the first is 2-fold lower: 150 nM for the first, 300 nM for the second.

Going from `COCCn1ncc(-c2ccc(-c3cnc(C(=O)Nc4ccc(C(=O)N5CCC(C(=O)N6CC[N+](CC(=O)O)(CC7CNC7)CC6)CC5)c(Cl)c4)n3C)c(F)c2F)c1C` [Example B22, 2-[1-(azetidin-3-ylmethyl)-4-[1-[2-chloro-4-[[5-[2,3-difluoro-4-[1-(2-methoxyethyl)-5-methyl-pyrazol-4-yl]phenyl]-1-methyl-imidazole-2-carbonyl]amino]benzoyl]piperidine-4-carbonyl]piperazin-1-ium-1-yl]acetic acid; formate] to `COCCn1ncc(-c2ccc(-c3cnc(C(=O)Nc4ccc(C(=O)N5CCN(C(=O)C6CC[N+](CC(=O)O)(CC7CNC7)CC6)CC5)c(Cl)c4)n3C)c(Cl)c2F)c1C` (centres unmarked) [Example B37, 2-[1-(azetidin-3-ylmethyl)-4-[4-[2-chloro-4-[[5-[2-chloro-3-fluoro-4-[1-(2-methoxyethyl)-5-methyl-pyrazol-4-yl]phenyl]-1-methyl-imidazole-2-carbonyl]amino]benzoyl]piperazine-1-carbonyl]piperidin-1-ium-1-yl]acetic acid; formate], the IC90 falls from 330 nM to 200 nM (1.6-fold).

Going from `Cc1c(-c2ccc(-c3cnc(C(=O)Nc4ccc(C(=O)N5CCN(C(=O)[C@@H]6C[C@@H](O)C[N+]6(C)C)CC5)c(Cl)c4)n3C)c(F)c2F)cnn1CCOC(F)F` [Example F10, N-[3-chloro-4-[4-[(2S,4R)-4-hydroxy-1,1-dimethyl-pyrrolidin-1-ium-2-carbonyl]piperazine-1-carbonyl]phenyl]-5-[4-[1-[2-(difluoro-methoxy)ethyl]-5-methyl-pyrazol-4-yl]-2,3-difluoro-phenyl]-1-methyl-imidazole-2-carboxamide; formate] to `Cn1c(-c2ccc(-c3cnn(CCN4CCOCC4)c3C(F)(F)F)c(F)c2F)cnc1C(=O)Nc1ccc(C(=O)N2CCN(C(=O)C3CC[N+](C)(C)CC3)CC2)c(Cl)c1` [Example F37, N-[3-chloro-4-[4-(1,1-dimethylpiperidin-1-ium-4-carbonyl)piperazine-1-carbonyl]phenyl]-5-[2,3-difluoro-4-[1-(2-morpholinoethyl)-5-(trifluoromethyl)pyrazol-4-yl]phenyl]-1-methyl-imidazole-2-carboxamide; formate], the IC90 rises from 75 nM to 690 nM (9.2-fold).

Molecule `Cc1nn(CC(=O)Nc2ccc(F)nn2)cc1-c1ccc(-c2cnc(C(=O)Nc3ccc(C(=O)N4CCN(C(=O)C5CC[N+](C)(C)CC5)CC4)c(Cl)c3)n2C)cc1` [Example L1, N-[3-chloro-4-[4-(1,1-dimethylpiperidin-1-ium-4-carbonyl)piperazine-1-carbonyl]phenyl]-5-[4-[1-[2-[(6-fluoropyridazin-3-yl)amino]-2-oxo-ethyl]-3-methyl-pyrazol-4-yl]phenyl]-1-methyl-imidazole-2-carboxamide; formate] has an IC90 of 206 nM.

Same assay, conditions: Acinetobacter baumannii, ATCC17961, 16 h, read-out: ATCC 17961 IC90

Compared with `COCCn1cc(-c2ccc(-c3cnc(C(=O)Nc4ccc(C(=O)N5CCN(C(=O)[C@H]6CC[N@+](CC(=O)O)(CC7CNC7)CC6)CC5)c(C)c4)n3C)cc2F)c(C)n1` [Example O9, cis 2-[1-(azetidin-3-ylmethyl)-4-[4-[4-[[5-[3-fluoro-4-[1-(2-methoxyethyl)-3-methyl-pyrazol-4-yl]phenyl]-1-methyl-imidazole-2-carbonyl]amino]-2-methyl-benzoyl]piperazine-1-carbonyl]piperidin-1-ium-1-yl]acetic acid formate], `COCCn1nc(C)c(-c2ccc(-c3cnc(C(=O)Nc4ccc(C(=O)N5CCN(C(=O)C6CC[N+](C)(CCOC)CC6)CC5)c(Cl)c4)n3C)c(F)c2F)c1C` (centres unmarked) [Example B9, N-[3-chloro-4-[4-[1-(2-methoxyethyl)-1-methyl-piperidin-1-ium-4-carbonyl]piperazine-1-carbonyl]phenyl]-5-[2,3-difluoro-4-[1-(2-methoxyethyl)-3,5-dimethyl-pyrazol-4-yl]phenyl]-1-methyl-imidazole-2-carboxamide; formate] is 1.8-fold higher in IC90: 284 nM for the first, 510 nM for the second.
